{
  "source": "paper PMC3070735",
  "about": "“Uremic Toxins Inhibit Transport by Breast Cancer Resistance Protein and Multidrug Resistance Protein 4 at Clinically Relevant Concentrations” (PLoS ONE, 2011)",
  "key": {"[1]": {"design": "method as in PMID 8832487, PMID 10052856", "conditions": "isolated perfused rat kidney, secretory transport; cited from earlier work"}, "BCRP": {"biological_target": "T1, BCRP (Homo sapiens, UniProt Q9UNQ0)", "T1 sequence (Q9UNQ0 1-655)": "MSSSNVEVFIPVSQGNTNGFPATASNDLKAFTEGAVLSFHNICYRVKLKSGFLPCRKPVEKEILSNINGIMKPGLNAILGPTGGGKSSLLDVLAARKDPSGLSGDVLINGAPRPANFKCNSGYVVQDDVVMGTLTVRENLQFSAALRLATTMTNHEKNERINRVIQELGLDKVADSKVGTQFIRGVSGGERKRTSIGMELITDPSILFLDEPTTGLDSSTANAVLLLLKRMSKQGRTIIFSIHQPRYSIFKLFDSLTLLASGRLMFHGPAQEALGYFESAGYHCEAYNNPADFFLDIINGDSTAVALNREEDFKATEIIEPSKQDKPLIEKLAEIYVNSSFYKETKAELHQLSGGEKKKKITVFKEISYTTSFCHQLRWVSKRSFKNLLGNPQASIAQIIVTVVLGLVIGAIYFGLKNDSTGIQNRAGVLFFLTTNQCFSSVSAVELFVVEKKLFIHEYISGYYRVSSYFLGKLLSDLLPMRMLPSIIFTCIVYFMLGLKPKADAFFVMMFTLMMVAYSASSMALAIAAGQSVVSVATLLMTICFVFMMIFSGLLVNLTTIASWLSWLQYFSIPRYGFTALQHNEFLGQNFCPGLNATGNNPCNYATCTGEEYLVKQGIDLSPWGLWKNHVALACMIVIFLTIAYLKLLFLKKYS", "assay": "Membrane vesicle transport inhibition assay: BCRP-mediated [3H]-E1S uptake", "protocol": "(§1) Human embryonic kidney (HEK293; purchased at American Type Culture Collection, Manassas, VA) cells were cultured in Dulbecco's modified Eagle's medium (Invitrogen life sciences, Breda, the Netherlands) containing 10% (v/v) fetal calf serum (MP Biomedicals, Uden, the Netherlands) at 37°C in a 5% (v/v) CO2 atmosphere. To functionally overexpress MRP4 and BCRP, HEK293 cells were transduced with baculoviruses of human MRP4, BCRP or enhanced yellow fluorescent protein (EYFP), generated via the Bac-to-Bac system (Invitrogen) as previously described. To transduce HEK293 cells, they were cultured in 500 cm^2 flasks until 70% confluence. Subsequently, medium was removed and 10 ml of virus and 25 ml of medium were added and incubated for 30 min at 37°C. Next, 50 ml of medium was added and after 2 h of transduction 5 mM sodium butyrate was added.\n(§2) Three days after transduction, cells were harvested and pelleted by centrifugation (30 min at 4,000 x g). Afterwards, the cells were resuspended in ice-cold hypotonic TS buffer (0.5 mM sodium phosphate, 0.1 mM EDTA, pH 7.0) containing protease inhibitors (100 µM phenylmethylsulfonyl fluoride, 5 µg/ml aprotinin, 5 µg/ml leupeptin, 1 µg/ml pepstatin and 1 µg/ml E-64) and shaken for 30 min at 4°C. Cells were then centrifuged at 100,000 x g for 30 min at 4°C. Subsequently, pellet was resuspended in ice-cold isotonic buffer (10 mM Tris-HEPES and 250 mM sucrose, pH 7.4, adjusted with HEPES) supplemented with protease inhibitors and homogenized using a tight fitting Dounce homogenizer followed by centrifugation (1,000 x g, 20 min, 4°C). Afterwards, supernatant was centrifuged at 100,000 x g for 1 h at 4°C. The resulting pellet was resuspended in isotonic buffer and passed through a 27-gauge needle 25 times to obtain crude membrane vesicles. The protein content of samples was determined using the Bio-Rad protein assay (Veenendaal, the Netherlands), according to manufacturers recommendations. Vesicles were frozen in liquid nitrogen and stored at −80°C until use. The orientation of the membrane vesicles was not determined, since ATP-dependent uptake occurs only in inside-out vesicles.\n(§3) A rapid filtration technique was used to study the uptake of [^3H]-MTX and [^3H]-E1S into MRP4 or BCRP membrane vesicles, as previously described. In short, 25 µl of TS buffer containing 4 mM ATP, 10 mM MgCl2 and radiolabeled substrate was added to 5 µl of the membrane vesicles (1.5 mg/ml). The transport assay was performed in the absence or presence of various concentrations of uremic toxins to evaluate the inhibitory effects of these compounds on MRP4-mediated [^3H]-MTX uptake and BCRP-mediated [^3H]-E1S uptake. […] Uptake was stopped by placing the samples on ice and the addition of 150 µl ice cold TS buffer. Subsequently, the samples were transferred to a 96 well filter plate (Millipore, Etten-leur, the Netherlands) pre-incubated with TS buffer and filtered using a Multiscreen HTS-Vacuum Manifold filtration device (Millipore). Afterwards, 2 ml of scintillation liquid was added to each filter and radioactivity was determined using liquid scintillation counting. As negative controls ATP was substituted for AMP and EYFP-membrane vesicles were used. Each experiment was performed in triplicates.\nStatistics were performed using GraphPad Prism 5.02 via an unpaired t test or a Kruskal-Wallis test followed by a Dunn's Multiple Comparison test. Differences between groups were considered to be statistically significant when p<0.05. The mean IC50 and IC20 values were calculated from the inhibition curves used for the Dixon analysis and to determine the inhibition constant (Ki) from the Dixon plots. Transport inhibition studies were performed in triplicate and repeated at least three times."}, "MRP4": {"biological_target": "T2, MRP4 (Homo sapiens, UniProt O15439)", "T2 sequence (O15439 1-1325)": "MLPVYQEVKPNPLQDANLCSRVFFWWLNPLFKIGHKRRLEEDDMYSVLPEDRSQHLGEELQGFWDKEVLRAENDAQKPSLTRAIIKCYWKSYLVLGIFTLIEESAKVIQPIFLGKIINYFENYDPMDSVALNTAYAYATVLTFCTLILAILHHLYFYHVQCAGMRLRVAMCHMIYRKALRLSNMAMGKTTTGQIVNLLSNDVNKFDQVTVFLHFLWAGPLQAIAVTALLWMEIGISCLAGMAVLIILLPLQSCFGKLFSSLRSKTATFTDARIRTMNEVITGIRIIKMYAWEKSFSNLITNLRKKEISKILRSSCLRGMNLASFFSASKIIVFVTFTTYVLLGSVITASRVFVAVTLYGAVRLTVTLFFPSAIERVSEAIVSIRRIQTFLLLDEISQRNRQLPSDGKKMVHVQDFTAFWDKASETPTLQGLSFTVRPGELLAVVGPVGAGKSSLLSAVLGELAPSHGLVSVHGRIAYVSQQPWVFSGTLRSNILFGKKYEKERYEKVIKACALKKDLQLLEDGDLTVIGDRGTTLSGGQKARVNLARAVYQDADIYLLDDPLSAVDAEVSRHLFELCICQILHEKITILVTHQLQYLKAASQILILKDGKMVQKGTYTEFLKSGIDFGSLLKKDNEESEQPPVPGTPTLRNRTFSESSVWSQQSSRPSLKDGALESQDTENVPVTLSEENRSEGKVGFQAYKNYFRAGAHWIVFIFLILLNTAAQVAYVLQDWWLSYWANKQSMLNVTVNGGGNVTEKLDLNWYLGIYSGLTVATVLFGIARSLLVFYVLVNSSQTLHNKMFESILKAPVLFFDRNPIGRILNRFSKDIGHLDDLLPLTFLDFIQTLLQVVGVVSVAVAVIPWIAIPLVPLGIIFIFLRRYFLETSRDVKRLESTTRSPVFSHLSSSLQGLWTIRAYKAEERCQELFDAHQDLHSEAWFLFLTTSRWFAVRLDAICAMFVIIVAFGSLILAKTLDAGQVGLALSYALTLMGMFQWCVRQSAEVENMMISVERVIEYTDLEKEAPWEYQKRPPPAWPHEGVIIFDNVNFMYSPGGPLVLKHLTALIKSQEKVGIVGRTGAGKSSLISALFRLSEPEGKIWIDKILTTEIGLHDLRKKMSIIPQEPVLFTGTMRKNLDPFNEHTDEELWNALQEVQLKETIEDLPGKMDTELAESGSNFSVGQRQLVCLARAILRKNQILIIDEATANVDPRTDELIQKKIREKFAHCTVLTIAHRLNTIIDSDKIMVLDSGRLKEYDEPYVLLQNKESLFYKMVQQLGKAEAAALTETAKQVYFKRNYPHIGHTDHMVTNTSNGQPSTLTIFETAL", "assay": "Membrane vesicle transport inhibition assay: MRP4-mediated [3H]-MTX uptake", "protocol": "as §1\nas §2, with “Subsequently, pellet was resuspended in ice-cold isotonic buffer (10 mM Tris-HEPES and 250 mM sucrose, pH 7.4, adjusted with HEPES) supplemented with protease inhibitors and homogenized using a tight fitting Dounce homogenizer followed by centrifugation (1,000 x g, 20 min, 4°C).” left out, “The resulting pellet was resuspended in isotonic buffer and passed through a 27-gauge needle 25 times to obtain crude membrane vesicles.” left out\nas §3\nDifferences between groups were considered to be statistically significant when p<0.05. The mean IC50 and IC20 values were calculated from the inhibition curves used for the Dixon analysis and to determine the inhibition constant (Ki) from the Dixon plots. Transport inhibition studies were performed in triplicate and repeated at least three times."}},
  "note": "Where a name gives a salt, the structure may show the parent alone.",
  "data": [
    {"compound": "Cc1ccccc1C(=O)NCC(=O)O", "note": "[2-methyl hippuric acid]", "values": [
      {"measurement": "Level in kidney tissue compared to the perfusate", "setting": "[1]", "result": 175, "unit": "times"}
    ]},
    {"compound": "Cc1ccc(C(=O)NCC(=O)O)cc1", "note": "[4-methyl hippuric acid]", "values": [
      {"measurement": "Level in kidney tissue compared to the perfusate", "setting": "[1]", "result": 600, "unit": "times"}
    ]},
    {"compound": "N.[3H]C1c2cc(OS(=O)(=O)O)ccc2[C@H]2CC[C@]3(C)C(=O)CC[C@H]3[C@@H]2C1[3H]", "note": "(stereo partly drawn) [[^3H]-E1S, [6′,7′-^3H(n)]-estrone-sulfate ammonium salt, reference compound]", "values": [
      {"measurement": "ATP-dependent uptake compared to EYFP controls", "setting": "BCRP; BCRP-overexpressing vesicles vs EYFP controls", "result": 24, "unit": "fold"},
      {"measurement": "ATP-dependent uptake, average rate", "setting": "BCRP; BCRP-overexpressing vesicles, no inhibitor", "result": 15.5, "unit": "pmol/mg/min"}
    ]},
    {"compound": "CN(Cc1cnc2nc(N)nc(N)c2n1)c1ccc(C(=O)N[C@@H](CCC(=O)O)C(=O)O)cc1", "note": "[[^3H]-MTX, [3′,5′,7′-^3H(n)]-methotrexate disodium salt, reference compound]", "values": [
      {"measurement": "ATP-dependent uptake compared to EYFP vesicles", "setting": "MRP4; MRP4-overexpressing vesicles vs EYFP vesicles", "result": 11, "unit": "fold"},
      {"measurement": "ATP-dependent uptake, average rate", "setting": "MRP4; MRP4-overexpressing vesicles, no inhibitor", "result": 1.3, "unit": "pmol/mg/min"}
    ]}
  ]
}
